PMC13131050, “Nicotinamide-Loaded Peptoid Nanotubes for Energy Regeneration in Acute Brain Injury” (ACS Nano, 2026)
Counter-ions that a name gives are not always drawn.

What was measured:
[1] = system: BV-2 cells; assay: Inhibition of DNS-PNT uptake by endocytic pathway inhibitors in BV-2 cells; type: cell-based, murine; settings: inhibitor 10 μM, 1 h pre-incubation, DNS-PNT 20 μg/mL 24 h with or without inhibitor; confocal imaging
Description: BV-2 cells were seeded at a density of 10,000 cells per well in a 96-well plate and cultured for 2 days. […] Following uptake, the medium containing PNTs was collected, and the cells were further incubated in fresh CCM for 1 or 24 h to allow exocytosis. The supernatant was subsequently collected, and the cells were washed three times with PBS. […] Fluorescence intensity was measured directly at 335/518 nm excitation and emission using a Synergy H1 multimodal microplate reader. For inhibition studies, BV-2 cells were seeded in 35 mm culture dishes (VWR) at a density of 300,000 cells and cultured for 2 days. […] The inhibitors used were chlorpromazine hydrochloride (Sigma), cytochalasin D (Sigma), amiloride hydrochloride hydrate (Sigma), sucrose (Thermo Fisher Scientific), and genistein (Sigma). − After treatment, cells were incubated with LysoTracker (75 nM, Invitrogen) for 1 h and fixed with 10% formalin phosphate buffer (Thermo Fisher Scientific) for 10 min. Subsequently, cells were stained with Tomato Lectin (1 μg/mL, 1 h) and ToPro-3 (0.1 μg/mL, 15 min; Thermo Fisher Scientific) in PBS at room temperature. Confocal images were acquired using a Nikon microscope (40× and […] oil immersion objectives, 1.30 numerical aperture; Nikon Corporation, Minato City, Tokyo, Japan).

[2] = system: OGD-exposed OWH brain slices; assay: Propidium iodide cell death in OGD-exposed OWH brain slices; type: cell-based, rat; settings: OGD-exposed P10 OWH slices, cortex and striatum, 24 h treatment, n = 7
Description: All treatments were applied topically.
After 24 h of treatment, slices were stained with 1 mL of 5 μg/mL PI (Thermo Fisher Scientific) in SCM for 45 min under standard culture conditions as previously described. , The staining solution was placed underneath the inset. Slices were washed twice for 3 min each with sterile 1× PBS at room temperature, followed by a 1 h wash with 37 °C SCM under culturing conditions, and then fixed with 10% formalin phosphate buffer (Thermo Fisher Scientific) for 1 hour. Following two final washes with room temperature 1× PBS, slices were stored covered at 4 °C until they were ready for use. Within 2 weeks, slices were stained for 15 min with 0.1 μg/mL DAPI (Thermo Fisher Scientific) in 1× PBS at room temperature. Slices were washed twice for 3 min each with 1× PBS prior to imaging. […] For each image, DAPI+ cell nuclei (total cells) and PI+ cell nuclei (dead cells) that were also DAPI+ were counted manually in ImageJ (NIH) after applying an Otsu threshold and fluorescence cutoff to aid in visualization. , The fluorescence cutoff was kept consistent across all images. The PI+/DAPI+ cell ratio was expressed as the percentage of dead cells in an individual image.

[3] = system: BV-2 cells; assay: MTT cell viability / cytotoxicity in healthy BV-2 cells; type: cell-based, murine; settings: 3 doses equivalent to NAM-PNT, 24 h (Figure S11)
Description: Murine microglia BV-2 cells were purchased from ATCC (CRL-2469) and cultured based on previous literature. Briefly, BV-2 cells were cultured in cell culture media (CCM, high-glucose, phenol red-free DMEM supplemented with 10% FBS, 1% glutamine, and 1% 100 U/mL penicillin–streptomycin) at 37 °C under a 5% CO2 atmosphere. The passage number of BV-2 cells used in this study was between 7 and 15. At 70–80% confluency, BV-2 cells were passaged and seeded in a 96-well plate for further experiments. […] Cell cytotoxicity was identified by the standard 3-(4,5-dimethylthiazol-2-yl)-2,5-diphenyltetrazolium bromide (MTT) assay (Thermo Fisher Scientific) on healthy cells. After 24 h, cells were incubated with fresh media containing 10 μL of 12 mM MTT solution in PBS for 4 h. Following the addition of 50 μL of […] (DMSO), the absorbance was recorded by a Synergy H1 multimodal microplate reader at a wavelength of 540 nm. Cell viability was measured using the alamarBlue (aBlue) Cell Viability Reagent (Thermo Fisher Scientific). […] The plate was measured directly at 560/590 nm excitation/emission fluorescence on a Synergy H1 multimodal microplate reader. Readings were normalized to those of healthy controls. […] Data were collected using a Synergy H1 multimodal microplate reader. For the OGD studies, readings were normalized to the average value of the OGD controls.

[4] = system: OGD-exposed BV-2 cells; assay: AlamarBlue cell viability / metabolic activity in OGD-exposed BV-2 cells; type: cell-based, murine; settings: 10 min OGD, then treatment, normalized to OGD controls
Description: Murine microglia BV-2 cells were purchased from ATCC (CRL-2469) and cultured based on previous literature. Briefly, BV-2 cells were cultured in cell culture media (CCM, high-glucose, phenol red-free DMEM supplemented with 10% FBS, 1% glutamine, and 1% 100 U/mL penicillin–streptomycin) at 37 °C under a 5% CO2 atmosphere. The passage number of BV-2 cells used in this study was between 7 and 15. At 70–80% confluency, BV-2 cells were passaged and seeded in a 96-well plate for further experiments. […] Following the addition of 50 μL of […] (DMSO), the absorbance was recorded by a Synergy H1 multimodal microplate reader at a wavelength of 540 nm. Cell viability was measured using the alamarBlue (aBlue) Cell Viability Reagent (Thermo Fisher Scientific). […] The plate was measured directly at 560/590 nm excitation/emission fluorescence on a Synergy H1 multimodal microplate reader. Readings were normalized to those of healthy controls. […] Data were collected using a Synergy H1 multimodal microplate reader. For the OGD studies, readings were normalized to the average value of the OGD controls.

[5] = system: BV-2 cells; assay: Intracellular ATP level (luminescent ATP detection kit) in BV-2 cells; type: cell-based, murine
Description: We prepared OGD media as previously described. , OGD media consisted of 120 mM sodium chloride (NaCl, MilliporeSigma), 5 mM potassium chloride (KCl, MilliporeSigma), 2 mM calcium chloride (CaCl2, MilliporeSigma), 1.25 mM monosodium phosphate anhydrous (NaH2PO4, MilliporeSigma), 2 mM magnesium sulfate (MgSO4, MilliporeSigma), 25 mM sodium bicarbonate (NaHCO3, MilliporeSigma), and 20 mM HEPES in DI water. The OGD medium was sterile-filtered (0.2 μm), titrated to pH 7.4 with 1 M hydrochloric acid (Thermo Fisher Scientific) or 1 M sodium hydroxide (Thermo Fisher Scientific), bubbled with nitrogen gas (Praxair, Danbury, CT, USA) for at least 10 min, and prewarmed to 37 °C prior to use. […] Following the addition of 50 μL of […] (DMSO), the absorbance was recorded by a Synergy H1 multimodal microplate reader at a wavelength of 540 nm. Cell viability was measured using the alamarBlue (aBlue) Cell Viability Reagent (Thermo Fisher Scientific). […] The plate was measured directly at 560/590 nm excitation/emission fluorescence on a Synergy H1 multimodal microplate reader. Readings were normalized to those of healthy controls. […] Data were collected using a Synergy H1 multimodal microplate reader. For the OGD studies, readings were normalized to the average value of the OGD controls.

[6] = AFM dimensions (height, length) of peptoid nanotubes; type: physicochemical; settings: nanotubes assembled from the named peptoid; ex-situ AFM on mica
Description: The lengths of PNTs can be adjusted through sonication.
PNTs were prepared using the slow evaporation method to self-assemble the peptoids. Typically, 1 μmol of peptoid was treated with 2 μL of trifluoroacetic acid (TFA) and dried under a flow of N2. Subsequently, 100 μL of acetonitrile was added, followed by the addition of 0.5 M NaOH. Deionized water was then added to bring the total volume to 200 μL. The samples were left at 4 °C for slow evaporation until a gel-like solution was obtained. Ex situ Atomic Force Microscopy (AFM) analysis was conducted using a Bruker MultiMode 8 in ScanAsyst mode at room temperature. For sample preparation, 1.5 μL of the self-assembled peptoid was diluted 40 times with deionized water and deposited on a mica substrate. After 5 min, Whatman filter paper was used to remove the solution, and then the dried mica substrate was further dried under N2 flow. The AFM probe consisted of silicon tips on silicon cantilevers (NCHV probes, k = 42 N/m, tip radius). Scanning electron microscopy (SEM) images were captured from the samples deposited on a silicon wafer using the Apreo2S scanning electron microscope by Thermo Fisher. The imaging process employed an ETD detector, an excitation voltage of 2 kV, a current of 0.2 nA, and a working distance of around 8 mm. […] XRD data were analyzed using custom Python scripts.

Q: For `C=C1[C@@H](C)[C@H]2[C@H](Cc3ccccc3)NC(=O)[C@]23[C@H](OC(C)=O)/C=C/[C@@](C)(O)C(=O)[C@@H](C)C/C=C/[C@H]3[C@@H]1O` [Cytochalasin D, cytochalasin D], which “Effect of inhibitor on DNS-PNT internalization into BV-2 cells” value (shortened to “Effect of inhibitor”) [1] is on record?
A: significantly suppressed PNT signals

Q: With `N=C(N)NC(=O)c1nc(Cl)c(N)nc1N` [amiloride, amiloride hydrochloride hydrate] as the compound, how does the “Effect of inhibitor” value [1] read?
A: minimal impact

Q: With `CN(C)CCCN1c2ccccc2Sc2ccc(Cl)cc21` [chlorpromazine, chlorpromazine hydrochloride] as the compound, how does the “Effect of inhibitor” value [1] read?
A: minimal impact

Q: Which “Cell death (percentage of PI+ cells)” value [2] does the source give for `NC(=O)C1=CN([C@@H]2O[C@H](COP(=O)(O)OP(=O)(O)OC[C@H]3O[C@@H](n4cnc5c(N)ncnc54)[C@H](O)[C@@H]3O)[C@@H](O)[C@H]2O)C=CC1` [free NAD+, β-nicotinamide adenine dinucleotide] here?
A: did not improve cell viability

Q: What about the “Increase in cell viability with free drug (MTT)” value [3] of the same compound?
A: increase was not seen

Q: And the “Metabolic activity / cell viability (AlamarBlue) versus OGD control” value [4]?
A: no effect

Q: For `NC(=O)c1cccnc1` [free NAM, nicotinamide], which “Improvement of intracellular ATP level after OGD energy depletion” value ([5]; OGD-exposed BV-2 cells, free drug) is on record?
A: did not

Q: What about the “Cellular ATP level in healthy cells” value ([5]; healthy BV-2 cells, 24 h (Figure S16a)) of the same compound?
A: limited increase compared to NAM-PNTs

Q: What about the “Increase in cell viability with free drug (MTT)” value [3] of the same compound?
A: increase was not seen

Q: With `O=c1c(-c2ccc(O)cc2)coc2cc(O)cc(O)c12` [genistein] as the compound, how does the “Effect of inhibitor” value [1] read?
A: significantly suppressed PNT signals

Q: Which “Effect of inhibitor” value [1] does the source give for `OC[C@H]1O[C@@](CO)(O[C@H]2O[C@H](CO)[C@@H](O)[C@H](O)[C@H]2O)[C@@H](O)[C@@H]1O` [sucrose] here?
A: reduced PNT uptake

Q: For Nbrpm6Nce3Nae3Nc2DNS [Pep-DNS], which “Height of nanotubes (ex-situ AFM)” value [6] is on record?
A: 7.78 ± 0.07 nm
